According to US10646489B2, “Compositions and methods for increasing energy metabolism” (NuSirt Sciences, Inc., priority 2012, dated 2020):

Assays:
3T3-L1 adipocytes = test: Glucose utilization (extracellular acidification response to glucose injection) in 3T3-L1 adipocytes / adipocytes; format: cell-based; settings: 3T3-L1 cells; leucine alone; p<0.05
Experimental: Glucose utilization was measured as extracellular acidification response to glucose injection. *p=0.05. […] Treatment with 0.5 mM leucine corresponds to a circulating level of the same molarity achieved by administering about 1,125 mg of dietary leucine to a human subject. Treatment with 0.25 mM leucine corresponds to a circulating level of the same molarity achieved by administering about 300 mg of dietary leucine to a human subject.

diet-induced obese mouse = test: Post-prandial glucose, insulin and HOMAIR in the diet-induced obese mouse; format: in vivo; settings: 7 days of treatment, leucine 24 g/kg diet, icariin 25 mg/kg diet
Experimental: The interactive effects of icariin, a flavanol with specific PDE5 inhibitory properties, on glycemia and insulin sensitivity were assessed in the diet-induced obese mouse, which can be used as a murine model of type 2 diabetes. Male C57/BL6 mice were placed on standard low-fat chow (control; 10% energy from fat) or high fat (60% energy from fat, Research Diets # D12492, Research Diets, Inc, New Brunswick, N.J.) at six weeks of age to induce insulin resistance. […], with 10 animals per group: Low fat diet (LFD) control; High fat diet (HFD) control; HFD+leucine (24 g/kg diet, a two-fold increase over control levels)1 HFD+leucine (24 g/kg diet)+icariin (25 mg/kg diet). […] Mice were fasted overnight (˜16 hours) prior to measurement of fasting blood glucose, insulin and glucose tolerance. Glucose tolerance was determined following measurement of fasting glucose via intraperitoneal administration of glucose (1.2 g/kg body weight) followed by blood glucose measurement at 15, 30, 60, 90 and 120 minutes. Post-prandial glucose was measured within one hour of cessation of eating. Insulin tolerance was measured via an insulin tolerance test (ITT). Food was removed 4-6 hours prior to ITT, and baseline blood glucose measured. The mice were then injected intraperitoneally with insulin (1.2 U/kg body weight) and blood glucose was measured 15, 30, 60, 90 and 120 minutes following insulin injection. The homeostasis model assessment of insulin resistance (HOMAIR) was used as a screening index of changes in insulin sensitivity. HOMAIR is calculated via standard formula from fasting plasma insulin and glucose as follows: HOMAIR=[Insulin (uU/mL)×glucose (mM)]/22.5. The plasma glucose and insulin concentrations were measured using the Glucose Assay Kit from Biovision (Milpitas, Calif.) and the Insulin kit from Millipore (Billerica, Mass.), respectively. CRP levels in plasma were determined by ELISA (CRP: Life Diagnostics, West Chester, Pa.).

leucine was tested, and the “glucose utilization, agent alone” value (3T3-L1 adipocytes) was 48.6% and the “reduction in post-prandial glucose vs. untreated HFD mice” value (diet-induced obese mouse) was “no independent effect”.
